ChEMBL document CHEMBL1133318, “Isoniazid-related copper(II) and nickel(II) complexes with antimycobacterial in vitro activity. Part 9” (Bioorg Med Chem Lett, 2000)
≈ marks a conversion by molar mass, not a printed value.

What was measured:
[1] = test system: Mycobacterium tuberculosis; experiment: In vitro antimicrobacterial activity to inhibit 90% of Mycobacterium tuberculosis H37Rv (Rifampin and Isoniazid susceptible ATCC 27294 strain), relative to that of controls; format: functional
Vero = experiment: Compound was tested for its cytotoxicity on Vero cells; format: functional, cell-based; settings: Chlorocebus sabaeus
[2] = test system: Mycobacterium tuberculosis; experiment: In vitro anti-mycobacterial activity against Mycobacterium tuberculosis H37Rv (Rifampin and Isoniazid susceptible ATCC 27294 strain); format: functional; parameters: concentration or dose not given beside the values
Mycobacterium avium = experiment: In vitro anti-mycobacterial activity against Mycobacterium avium at 12.5 ug/mL; format: functional
[3] = Safety index from cytotoxicity to that of minimal inhibitory concentration; format: toxicity; settings: read-out: S.I

Row | Compound | MIC [1] | IC50 (Vero) | Inhibition [2] | inhibition at 12.5 µg/mL (Mycobacterium avium) | selectivity ratio [3]
1 | NNC(=O)c1ccncc1 [ISONIAZID] | 0.05 mg/L (≈ 0.365 µM) | > 1000 mg/L |  |  | 
2 | O=C(N/N=C/C(F)(F)F)c1ccncc1 | 0.05 mg/L (≈ 0.23 µM) |  | 100% |  | 
3 | O=C(N/N=C(\c1ccccc1)C(F)(F)F)c1ccncc1 | 6.25 mg/L (≈ 21.3 µM) |  | 100% |  | 
4 | C/C(=N\NC(=O)c1ccncc1)c1ccc(Cl)c(Cl)c1 | < 0.2 mg/L |  | 100% |  | 
5 | C/C(=N\NC(=O)c1ccncc1)C(F)(F)F | 0.05 mg/L (≈ 0.216 µM) |  | 99% |  | 
6 | C/C=N/NC(=O)c1ccncc1 | 0.025 mg/L (≈ 0.153 µM) |  | 99% |  | 
7 | O=C(N/N=C/c1ccc(C(F)(F)F)cc1)c1ccncc1 | < 0.2 mg/L |  | 100% | 82% | 
8 | O=C(N/N=C/c1cccc(F)c1)c1ccncc1 | < 0.2 mg/L | > 6.25 mg/L | 99% | 82% | > 31.2
9 | O=C(N/N=C/c1ccccc1F)c1ccncc1 | 0.05 mg/L (≈ 0.206 µM) | 8.4 mg/L (≈ 34.5 µM) | 100% |  | 168
10 | C/C(=N\NC(=O)c1ccncc1)c1ccccc1F | 0.2 mg/L (≈ 0.777 µM) | > 125 mg/L | 100% |  | > 625
11 | COc1ccc(/C=N/NC(=O)c2ccncc2)cc1F | < 0.2 mg/L |  | 99% |  | 
12 | O=C(N/N=C/c1cccc(C(F)(F)F)c1)c1ccncc1 | 0.1 mg/L (≈ 0.341 µM) | > 10 mg/L | 99% |  | > 100
13 | CO[C@H]1/C=C/O[C@@]2(C)Oc3c(C)c(O)c4c(O)c(c(/C=N/N5CCN(C)CC5)c(O)c4c3C2=O)NC(=O)/C(C)=C\C=C\[C@H](C)[C@H](O)[C@@H](C)[C@@H](O)[C@@H](C)[C@H](OC(C)=O)[C@@H]1C [RIFAMPIN] | 0.06 mg/L (≈ 0.0729 µM) | 147 mg/L (≈ 179 µM) |  |  | 
14 | C/C(=N\NC(=O)c1ccncc1)c1cccc(F)c1 | < 0.05 mg/L |  | 100% |  | 
15 | C/C(=N\NC(=O)c1ccncc1)c1ccc(F)cc1 | < 0.2 mg/L | > 10 mg/L | 99% |  | > 50
